Experimental findings from paper PMC11742003, “Co-expression of the RPS6KB1 and PDPK1 genes for production of activated p70S6K1 using bac-to-bac baculovirus expression system” (Molecular Biology Reports, 2025) are described below.

The target of this experiment is T1, p70S6K1 (His-actS6K1; Ribosomal protein S6 kinase 1) (Homo sapiens, UniProt P23443, T412D).
T1 construct: gene RPS6KB1; 6xHis-tagged S6K1 residues 3-398 (ΔAID), phosphorylated at T229 by co-expressed PDPK1(ΔPH)
Put plainly: AlphaScreen kinase assay with biotinylated rpS6 peptide, […] ATP, purified enzyme. Type of experiment: biochemical. On the technique in general: In Alpha technology, singlet oxygen from a donor bead excites a nearby acceptor bead.

Broadly, the IC50 is the concentration that inhibits the measured activity by half.

T1 sequence (P23443 26-421 T412D): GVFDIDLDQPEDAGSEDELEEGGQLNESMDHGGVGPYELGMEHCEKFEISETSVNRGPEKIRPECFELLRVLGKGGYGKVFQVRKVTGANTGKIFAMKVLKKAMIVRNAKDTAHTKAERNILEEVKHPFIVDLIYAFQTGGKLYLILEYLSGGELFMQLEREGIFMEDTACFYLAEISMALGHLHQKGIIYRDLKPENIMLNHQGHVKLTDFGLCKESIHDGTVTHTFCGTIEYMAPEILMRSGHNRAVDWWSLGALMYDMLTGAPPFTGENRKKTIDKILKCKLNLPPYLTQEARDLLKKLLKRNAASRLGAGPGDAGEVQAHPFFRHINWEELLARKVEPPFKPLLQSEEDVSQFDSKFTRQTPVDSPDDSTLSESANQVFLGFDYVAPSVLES

In the case of `Cn1cc(-c2ccc(F)c(C(F)(F)F)c2)nc1C1CCN(c2ncnc3[nH]ncc23)CC1` [LY2584702], 4.2 nM corresponded to half-maximal inhibition (IC50).
